Laboratory results as given in PubChem BioAssay (NCI).
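Each compound was tested at five concentrations against cells in 96-well plates for 48 hours. GI50: concentration for 50% inhibition of growth. TGI: total growth inhibition.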

Experiments:
Assay in all cases: DTP human tumour cell line panel, 48 h
MOLT-4 leukemia = system: MOLT-4 leukemia
NCI-H226 lung = system: NCI-H226 lung
NCI-H23 lung = system: NCI-H23 lung
NCI-H460 lung = system: NCI-H460 lung
NCI-H522 lung = system: NCI-H522 lung
NCI/ADR-RES ovarian = system: NCI/ADR-RES ovarian
OVCAR-3 ovarian = system: OVCAR-3 ovarian
OVCAR-4 ovarian = system: OVCAR-4 ovarian
OVCAR-5 ovarian = system: OVCAR-5 ovarian
OVCAR-8 ovarian = system: OVCAR-8 ovarian
PC-3 prostate = system: PC-3 prostate
RPMI-8226 leukemia = system: RPMI-8226 leukemia
RXF 393 renal = system: RXF 393 renal
SF-268 CNS = system: SF-268 CNS
SF-295 CNS = system: SF-295 CNS
SF-539 CNS = system: SF-539 CNS
SK-MEL-28 melanoma = system: SK-MEL-28 melanoma
SK-MEL-5 melanoma = system: SK-MEL-5 melanoma
SK-OV-3 ovarian = system: SK-OV-3 ovarian
SN12C renal = system: SN12C renal
SNB-75 CNS = system: SNB-75 CNS
SR leukemia = system: SR leukemia
SW-620 colon = system: SW-620 colon
T-47D breast = system: T-47D breast
TK-10 renal = system: TK-10 renal
U251 CNS = system: U251 CNS
UACC-62 melanoma = system: UACC-62 melanoma
UO-31 renal = system: UO-31 renal

Structure (SMILES): COc1cc(O)c2c(=O)c(OC)c(-c3ccc(OC)c(OC)c3)oc2c1.[Co]
- TGI (MOLT-4 leukemia): > 100 µM
- TGI (NCI-H226 lung): > 100 µM
- GI50 (NCI-H23 lung): > 100 µM
- TGI (NCI-H23 lung): > 100 µM
- TGI (NCI-H460 lung): > 100 µM
- TGI (NCI-H522 lung): 35.1 µM
- GI50 (NCI/ADR-RES ovarian): > 100 µM
- TGI (NCI/ADR-RES ovarian): > 100 µM
- GI50 (OVCAR-3 ovarian): > 100 µM
- TGI (OVCAR-3 ovarian): > 100 µM
- GI50 (OVCAR-4 ovarian): 13.1 µM
- TGI (OVCAR-4 ovarian): > 100 µM
- GI50 (OVCAR-5 ovarian): > 100 µM
- TGI (OVCAR-5 ovarian): > 100 µM
- GI50 (OVCAR-8 ovarian): > 100 µM
- TGI (OVCAR-8 ovarian): > 100 µM
- GI50 (PC-3 prostate): 66.7 µM
- TGI (PC-3 prostate): > 100 µM
- TGI (RPMI-8226 leukemia): > 100 µM
- TGI (RXF 393 renal): > 100 µM
- GI50 (SF-268 CNS): 38.4 µM
- TGI (SF-268 CNS): > 100 µM
- GI50 (SF-295 CNS): 16.2 µM
- TGI (SF-295 CNS): > 100 µM
- TGI (SF-539 CNS): > 100 µM
- GI50 (SK-MEL-28 melanoma): > 100 µM
- TGI (SK-MEL-28 melanoma): > 100 µM
- GI50 (SK-MEL-5 melanoma): 70.3 µM
- TGI (SK-MEL-5 melanoma): > 100 µM
- TGI (SK-OV-3 ovarian): > 100 µM
- TGI (SN12C renal): > 100 µM
- TGI (SNB-75 CNS): > 100 µM
- GI50 (SR leukemia): 5.29 µM
- TGI (SR leukemia): > 100 µM
- TGI (SW-620 colon): > 100 µM
- GI50 (T-47D breast): 10.7 µM
- TGI (T-47D breast): > 100 µM
- TGI (TK-10 renal): > 100 µM
- TGI (U251 CNS): > 100 µM
- GI50 (UACC-62 melanoma): 32.3 µM
- TGI (UACC-62 melanoma): > 100 µM
- TGI (UO-31 renal): > 100 µM
